Measurements: patent publication US20230076733A1, “Combination Therapy” (AGENCY FOR SCIENCE, TECHNOLOGY AND RESEARCH, priority 2020, published 2023)
“And” between values parts separate entries of the source, which are not always exact repeats. Equal values may be shown once.

Key:
Format in all cases: cell-based
PA-TU-8988T cells = experiment: soft agar colony formation assay, PA-TU-8988T cells; settings: for IC50: PA-TU-8988T cells, pre-determined by dose-response assay; for Colony count: PA-TU-8988T, duplicate wells
Protocol: The IC50 and EC50 values for each combination partner (a) and (b) with the specific cell lines are determined from the response plot. A dose-response assay for each combination partner and the combination at different concentrations based on the IC50 values of each combination partner was performed. Computed EC50-EC95 values were then generated by a software (as disclosed herein) based on the drug concentration and the respective colony growth numbers. 6. Cell lines used and number of cells seeded per well [table] (1) Base Layer—0.6% Agar per 300 μL per well. Microwave the agar for 1-2 min so that it is completely melted. Add 5.4 ml of the melted agar into 21.6 ml of pre-warmed media (All media and agar preparation is made in excess for 2.5 plates). Aliquot 300 μl of the suspension into each well, avoiding the first and last columns of the plates. Fill the first and last columns of wells with 500 μl of sterile water or phosphate buffered saline. Incubate the plates in 37° C. incubator for 45 min-1 hr to allow agar to solidify. (2) Middle Layer— 0.3% Agar plus corresponding number of cells per well Trypsinize the adherent cells and suspend them in 5 ml of media. Determine the number of cells in the suspension and calculate the volume of cell suspension required for seeding. Mix the agar and media together first, excluding the volume of cell suspension. Add the cell suspension last into the mixture. Mix well and aliquot 250 μl into each well containing the base layer. Incubate the plates in a 37° C. incubator for 1-1.5 hrs to allow the agar to solidify. […] Prepare the required concentration of compounds based on the IC50 values of each drug. (Pre-determine the IC50 values for each drug with the corresponding cell-line using a dose-response assay) Row A& B: Aliquot 250 μl of diluted Drug A per well Row C&D: Aliquot 250 μl of diluted Drug B per well Row E& F: Aliquot 250 μl of diluted Drug A and B mixed at 1:1 ratio for each well Assay Results Analysis Method • 1. Score the colonies after 2 to 3 weeks depending on the colony forming status for different cell line. • 2. Before scoring the colonies, add 35 μl MTT (5 mg/ml) to the wells with cells and incubate at 37° C. for 2-3 hrs depending on the intensity of colour development. • 3. Once the colonies are stained, count the total number of colonies formed using the Oxford Optronix GelCount® instrument. • 4. Average the total number of colonies obtained for each drug dose point and represent it as a fraction over the control. This represents the fraction of colony growth. […] Incorporate the fraction of inhibition and the corresponding dose values into the Chou Talalay Software available online (http://www.combosyn.com/) to obtain the combination index values. • 6. The combination index values will give an indication as to whether the combined drugs are synergistic, antagonistic or additive in the treated cells, as shown in Table 2 below. FIG. 12 illustrates a dose-response assay plate containing PA-TU-8988T cells (Test 1) after testing compounds at different concentrations based on the IC50 values of each compound. […] is a cell line established from pancreatic adenocarcinoma (pancreatic cancer).

HPAF-II cells = experiment: expression of DNA repair genes by qRT-PCR, HPAF-II cells; settings: 100 nM for 48 hr versus DMSO
Protocol: (§1) Tumors were homogenised in RLT buffer using a polytron homogenizer. Total RNA was isolated using RNAeasy kit (Qiagen, Germany) according to manufacturer's protocol. For qPT-PCR, RNA was reverse transcribed with iScript reverse transcriptase (BioRAD, Hercules, Calif., USA). Real time quantitative PCR (qPCR) was performed using SsoFast EvaGreen assay Supermix from BioRad (Hercules, Calif., USA). EPN1 and ACTB were used as housekeeping genes.
(§2) Inhibition of Wnt signalling reduces expression of DNA repair genes: HPAF-II, AsPC-1 or PaTu899S cells were treated with either DMSO or 100 nM compound of Formula (I) for 48 hr. The expression of the indicated genes was measured by qRT-PCR. FIGS. 14-16 illustrates the results.

AsPC-1 cells = experiment: expression of DNA repair genes by qRT-PCR, AsPC-1 cells; settings: 100 nM for 48 hr versus DMSO
Protocol: as §1, §2

PaTu899S cells = experiment: expression of DNA repair genes by qRT-PCR, PaTu899S cells; settings: 100 nM for 48 hr versus DMSO
Protocol: as §1, §2

[1] = Test 1, 0.25x IC50: dose Olaparib 0.2525, Ex 1 0.275, combination both 1:1
[2] = Test 1, 0.5x IC50: dose Olaparib 0.505, Ex 1 0.55, combination both 1:1
[3] = Test 1, 1x IC50: dose Olaparib 1.01, Ex 1 1.1, combination both 1:1
[4] = Test 1, 2x IC50: dose Olaparib 2.02, Ex 1 2.2, combination both 1:1
[5] = Test 1, 4x IC50: dose Olaparib 4.04, Ex 1 4.4, combination both 1:1
[6] = Test 2, 0.25x IC50: dose Olaparib 0.2525, Ex 1 0.275, combination both 1:1
[7] = Test 2, 0.5x IC50: dose Olaparib 0.505, Ex 1 0.55, combination both 1:1
[8] = Test 2, 1x IC50: dose Olaparib 1.01, Ex 1 1.1, combination both 1:1
[9] = Test 2, 2x IC50: dose Olaparib 2.02, Ex 1 2.2, combination both 1:1
[10] = Test 2, 4x IC50: dose Olaparib 4.04, Ex 1 4.4, combination both 1:1

Which results are given for `Cn1c(=O)c2c(ncn2CC(=O)Nc2ccc(-c3ccccc3)nn2)n(C)c1=O` [Ex 1, 2-(1,3-dimethyl-2,6-dioxo-2,3-dihydro-1H-purin-7 (6H)-yl)-N-(6-phenylpyridazin-3-yl)acetamide]?
IC50 (PA-TU-8988T cells): 1100 nM; Colony count (PA-TU-8988T cells; [1]): 420 and 494; Colony count (PA-TU-8988T cells; [2]): 343 and 488; Colony count (PA-TU-8988T cells; [3]): 215 and 393; Colony count (PA-TU-8988T cells; [4]): 250 and 311; Colony count (PA-TU-8988T cells; [5]): 212 and 296; Colony count (PA-TU-8988T cells; [6]): 200 and 237; Colony count (PA-TU-8988T cells; [7]): 143 and 227; Colony count (PA-TU-8988T cells; [8]): 156 and 209; Colony count (PA-TU-8988T cells; [9]): 155 and 215; Colony count (PA-TU-8988T cells; [10]): 125 and 186; expression of DNA repair genes BRCA1, BRCA2, FANCD2, FANCG, RAD51 and XRCC3 (HPAF-II cells): inhibited the expression of DNA repair genes; expression of DNA repair genes BRCA1, BRCA2, FANCD2, FANCG, RAD51 and XRCC3 (AsPC-1 cells): inhibited the expression of DNA repair genes; expression of DNA repair genes BRCA1, BRCA2, FANCD2, FANCG, RAD51 and XRCC3 (PaTu899S cells): inhibited the expression of DNA repair genes

Which IC50 (PA-TU-8988T cells; Homo sapiens, PaTu 8988t) does the source give for `O=C(c1cc(Cc2n[nH]c(=O)c3ccccc23)ccc1F)N1CCN(C(=O)C2CC2)CC1` [Olaparib, reference compound] here?
Its IC50 is 1010 nM.

What about the Colony count (PA-TU-8988T cells; [1]) of the same molecule?
Its Colony count is 537 and 426.

And the Colony count (PA-TU-8988T cells; [2])?
The Colony count was 425 and 331.

What about the Colony count (PA-TU-8988T cells; [3]) of the same molecule?
Its Colony count is 398 and 327.

And the Colony count (PA-TU-8988T cells; [4])?
The Colony count was 411 and 325.

And the Colony count (PA-TU-8988T cells; [5])?
Its Colony count is 362 and 307.

And the Colony count (PA-TU-8988T cells; [6])?
Its Colony count is 222 and 170.

And the Colony count (PA-TU-8988T cells; [7])?
Its Colony count is 180 and 155.

And the Colony count (PA-TU-8988T cells; [8])?
The Colony count was 146 and 150.

And the Colony count (PA-TU-8988T cells; [9])?
The Colony count was 136 and 143.

And the Colony count (PA-TU-8988T cells; [10])?
Its Colony count is 180 and 125.
